The text below walks through data of ChEMBL document CHEMBL1201862, “PubChem BioAssay data set” (2004).

Test systems include KM12; MCF7; BT-549; SR; NCI-H226; UACC-62; ACHN; DU-145; RXF 393; HOP-62; CCRF-CEM; NCI-H460; COLO 205; LOX IMVI; CAKI-1; NCI-H522; RPMI-8226; SW-620; HL-60; SF-539.
Test in all cases: DTP human tumour cell line panel, 48 h

The structures appear in SMILES notation.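 1) Cells in 96-well plates. 2) Compound, 48 h, 5 concentrations. 3) Linear interpolation between surrounding doses. 4) Unreached endpoint = highest concentration. GI50 = concentration required for 50% inhibition of growth.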 Active and inactive are the calls of the source. No stated cut-off is given here; in the data, active = GI50 up to about 1.1 µM and inactive = higher.

The GI50 is the concentration that inhibits growth by half. With `COc1ccc(N2C=Nn3c(nc4sc(C)c(C)c4c3=O)C2)cc1`, the GI50 in the test with KM12, in the test with MCF7, in the test on BT-549, with SR, in the test with NCI-H226 and in the test on UACC-62 was > 100 µM (inactive) throughout. Further, the GI50 is > 100 µM (inactive) with ACHN; > 100 µM (inactive) with DU-145; 53.3 µM (inactive) with RXF 393; 28.6 µM (inactive) in the test on HOP-62; > 100 µM (inactive) in the test with CCRF-CEM; > 100 µM (inactive) in the test on NCI-H460. Moreover, the GI50 with COLO 205, in the test on LOX IMVI, in the test on CAKI-1, in the test with NCI-H522, in the test on RPMI-8226 and with SW-620 was > 100 µM (inactive) throughout.

As for `OCCCN(CCc1ccc(Cl)c(Cl)c1)CCN1CCCC1`, the GI50 with KM12 is 45.7 µM (inactive); with MCF7 it was 27.4 µM (inactive); with BT-549 it was 40.2 µM (inactive); with SR, 31.8 µM (inactive); in the test with UACC-62, 16.9 µM (inactive); with ACHN, 64.6 µM (inactive). The GI50 was > 100 µM (inactive) with DU-145; 34.4 µM (inactive) in the test on HL-60; 64.4 µM (inactive) in the test with RXF 393; > 100 µM (inactive) in the test with HOP-62; 30 µM (inactive) in the test with CCRF-CEM; 51.2 µM (inactive) with NCI-H460. Also, the GI50 is 35.9 µM (inactive) in the test with LOX IMVI; > 100 µM (inactive) with CAKI-1; 30.3 µM (inactive) in the test with NCI-H522; 26.5 µM (inactive) with RPMI-8226; 81.5 µM (inactive) with SW-620.

Turning to `CS(=O)(=O)c1ccc(C(=O)O[C@@H]2C(=O)N3CC[C@H]4OC(O)[C@@H]2[C@H]43)cc1` (stereo not given in full), the GI50 with KM12, in the test on MCF7, with SF-539, in the test with BT-549, in the test on SR and with NCI-H226 was > 100 µM (inactive) throughout. In addition, the GI50 in the test with UACC-62, in the test with ACHN, with DU-145, in the test with RXF 393, with HOP-62 and with NCI-H460 was > 100 µM (inactive) each time. The GI50 with COLO 205, with LOX IMVI, with CAKI-1, with RPMI-8226 and in the test with SW-620 was > 100 µM (inactive) each time.

Turning to `Nc1ccc2nc3n(c2c1)C(c1c(F)cccc1F)SC3` (stereo not given), the GI50 with KM12, in the test on MCF7, with SF-539, in the test with BT-549, in the test on SR and in the test with UACC-62 was > 100 µM (inactive) each time. Also, the GI50 in the test on ACHN is > 100 µM (inactive); in the test with DU-145, > 100 µM (inactive); in the test with HL-60, 45.3 µM (inactive); with RXF 393, > 100 µM (inactive); with HOP-62 it was > 100 µM (inactive); in the test on CCRF-CEM it was 68.2 µM (inactive). Also, the GI50 is > 100 µM (inactive) in the test on NCI-H460; > 100 µM (inactive) in the test with COLO 205; > 100 µM (inactive) in the test on LOX IMVI; > 100 µM (inactive) in the test with CAKI-1; > 100 µM (inactive) with NCI-H522; 66.5 µM (inactive) in the test on RPMI-8226. Besides, the GI50 in the test with SW-620 is > 100 µM (inactive).

As for `Cn1c(=O)cc(NNc2ccc(Cl)c(Cl)c2)[nH]c1=O`, the GI50 was 12.3 µM (inactive) in the test on KM12; 6.41 µM (inactive) with MCF7; 15.1 µM (inactive) with SF-539; 16 µM (inactive) with BT-549; > 100 µM (inactive) with SR; 19.5 µM (inactive) in the test on NCI-H226. In addition, the GI50 was 1.71 µM (inactive) with UACC-62; 5.46 µM (inactive) in the test on ACHN; 17.5 µM (inactive) with DU-145; 8 µM (inactive) with HL-60; 22.9 µM (inactive) in the test with RXF 393; 16.4 µM (inactive) in the test with HOP-62. The GI50 with CCRF-CEM is 13.1 µM (inactive); in the test on NCI-H460 it was 4.86 µM (inactive); in the test with COLO 205 it was 18.9 µM (inactive); in the test on LOX IMVI it was 12.2 µM (inactive); with CAKI-1 it was 14.1 µM (inactive); in the test with RPMI-8226 it was > 10 µM (inactive). Moreover, the GI50 in the test on SW-620 was 6.1 µM (inactive).

Take `COc1cc(NC(C)=O)ccc1C(=O)N/N=C/c1ccco1`: the GI50 in the test with KM12 is > 100 µM (inactive); in the test on MCF7, 52.2 µM (inactive); in the test with SF-539, 44.2 µM (inactive); with BT-549, > 100 µM (inactive); in the test with SR it was 26.7 µM (inactive); with UACC-62 it was > 100 µM (inactive). The GI50 in the test with ACHN was 63 µM (inactive); in the test on DU-145, > 100 µM (inactive); in the test on HL-60 it was 46.5 µM (inactive); in the test on RXF 393, > 100 µM (inactive); with HOP-62 it was > 100 µM (inactive); in the test with CCRF-CEM it was 80.2 µM (inactive). The GI50 is 31.8 µM (inactive) in the test with COLO 205; 97.5 µM (inactive) in the test on LOX IMVI; 65 µM (inactive) in the test with CAKI-1; > 100 µM (inactive) with NCI-H522; 77.6 µM (inactive) in the test on RPMI-8226; > 100 µM (inactive) in the test on SW-620.

On to `CC(C)(C)C1CCC2c3c([nH]c4ccccc34)C3C(=O)N(c4ccc(C#N)cc4)C(=O)C3C2C1` (stereo not given), for which the GI50 in the test with MCF7 is 29.5 µM (inactive); in the test with SF-539 it was 18.7 µM (inactive); in the test on BT-549 it was 15.7 µM (inactive); in the test on SR, 6.47 µM (inactive); with NCI-H226, 20 µM (inactive); with UACC-62, 5.81 µM (inactive). The GI50 in the test on ACHN is 15.1 µM (inactive); in the test with DU-145, 13.6 µM (inactive); in the test with HL-60 it was 3.42 µM (inactive); in the test with RXF 393 it was 3.21 µM (inactive); with HOP-62 it was 15.7 µM (inactive); in the test with CCRF-CEM, 0.0108 µM (active). Also, the GI50 in the test on NCI-H460 is 3.81 µM (inactive); in the test with COLO 205 it was 21.4 µM (inactive); with LOX IMVI, 13.2 µM (inactive); in the test on CAKI-1, 12.3 µM (inactive); with RPMI-8226 it was 21.3 µM (inactive); in the test on SW-620, 8.13 µM (inactive).

As for `Cc1nn(-c2ccccc2)c(C)c1/C=N/NC(=O)c1sc(=S)n(-c2ccccc2)c1N`, the GI50 with KM12 was 6.05 µM (inactive); in the test on MCF7, 5.65 µM (inactive); with SF-539, 2.39 µM (inactive); with BT-549 it was 9.71 µM (inactive); with SR it was 3.94 µM (inactive); in the test with NCI-H226 it was 6.52 µM (inactive). For the same compound, the GI50 in the test on UACC-62 is 4.62 µM (inactive); in the test with ACHN, 1.48 µM (inactive); with DU-145 it was 9.66 µM (inactive); with HL-60, 20.5 µM (inactive); in the test with RXF 393, 1.46 µM (inactive); with HOP-62 it was 9.84 µM (inactive). Moreover, the GI50 with CCRF-CEM is 5.16 µM (inactive); in the test on NCI-H460 it was 3.08 µM (inactive); with COLO 205 it was 1.42 µM (inactive); in the test with LOX IMVI, 2.09 µM (inactive); in the test on CAKI-1 it was 1.56 µM (inactive); with RPMI-8226 it was 3.35 µM (inactive). Further, the GI50 with SW-620 was 45.5 µM (inactive).
